Results: patent publication US11759462B2, “Spirocyclic compounds as tryptophan hydroxylase inhibitors” (priority 2013, dated 2023)
pIC50: −log10 of the molar value. Like-named read-outs stand apart in the source and are kept apart here.

Molecular target: T1, Recombinant human TPH1 (MBP tagged) (Homo sapiens, UniProt P17752)
T1 construct: cloning full length human TPH1 cDNA in to a bacterial pMAL-c5E expression vector; made in house; host or cells: E. coli BL21 (DE3)
T1 sequence (P17752 1-444): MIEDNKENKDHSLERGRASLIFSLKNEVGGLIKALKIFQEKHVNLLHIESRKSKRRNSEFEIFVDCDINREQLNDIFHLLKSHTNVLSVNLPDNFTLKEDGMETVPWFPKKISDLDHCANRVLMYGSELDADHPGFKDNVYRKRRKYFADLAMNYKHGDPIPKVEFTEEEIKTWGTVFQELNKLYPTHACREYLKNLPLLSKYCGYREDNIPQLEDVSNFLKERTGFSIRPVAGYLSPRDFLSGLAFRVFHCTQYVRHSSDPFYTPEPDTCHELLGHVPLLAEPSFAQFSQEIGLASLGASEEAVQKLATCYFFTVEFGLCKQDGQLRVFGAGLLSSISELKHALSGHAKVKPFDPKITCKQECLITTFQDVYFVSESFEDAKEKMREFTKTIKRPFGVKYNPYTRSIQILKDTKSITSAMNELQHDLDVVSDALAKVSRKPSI
Experiment: TPH1 in vitro inhibition assay (kinetic fluorescence)
Assay type: biochemical
From the text: Recombinant human TPH1 (rTPH1 GenBank™ accession no. NP_004179) was expressed by cloning full length human TPH1 cDNA in to a bacterial pMAL-c5E expression vector to produce maltose-binding protein (MBP) TPH1 fusion proteins. E. coli BL21 (DE3) containing pMAL-c5E-TPH1 was used for protein generation and the recombinant protein was purified utilizing standard column chromatography techniques. The MBP tagged TPH1 (MBP-TPH1) was used directly to screen compounds as described below. Recombinant human TPH2 (rTPH2 GenBank™ accession no. 173353), PheOH (rPheOH GenBank™ accession no. K03020) and TH (rTH GenBank™ accession no. L20679) with an MBP tag were produced similarly.
TPH1 activities were measured in an assay containing 200 mM ammonium sulfate, 7 mM DTT, 50 μg/mL catalase, 25 μM ammonium iron sulfate, 50 mM MES, pH 7.1. Test compounds were diluted in 100% DMSO and added to the assay plate in 1 μL aliquots at 100× final concentration. Fifty microliters of assay buffer containing 30 nM TPH1 enzyme (MBP tagged) were added to the plate wells containing the test compound by the use of an Eppendorf repeater pipette. The reaction was initiated by the addition of 50 μL of assay buffer containing 60 μM tryptophan and 72 μM 6-6-methyltetra-hydropterin (2× final concentration) by the use of a Multidrop (LabSystems). Final reaction conditions were 15 nM TPH1 enzyme, 30 μM tryptophan, 36 μM 6-methyltetra-hydropterin, 200 mM ammonium sulfate, 7 mM DTT, […], 25 μM ferrous ammonium sulfate, 50 mM MES, pH 7.1, with atmospheric oxygen at room temperature. The plate was immediately placed onto an M5 plate reader (Molecular Devices) for kinetic fluorescence measurement using an excitation setting of 300 nm and an emission setting of 335 nm. Fluorescence reads are recorded in kinetic mode for 300 seconds (5 minutes).
Kinetic assay data for compounds at specific concentrations was translated into slopes using the Softmax Pro software on a Spectramax reader, and compound inhibition slopes were compared with wells containing enzyme, substrate and cofactor in the absence of inhibitor (100%), and wells containing substrate and cofactor in the absence of enzyme (0%). DMSO concentration in the assay was 1%. […] IC50's were determined using Graphpad Prism.

[1] = read-out: TPH1 Range (TPH1 inhibition IC50)

SMILES | pIC50 [1] | pIC50 (TPH1 Range (TPH1 inhibition IC50))
Cc1ccn(-c2cc(-c3cc(Cl)cc(Cl)c3)ccc2[C@@H](Oc2cc(N3CCC4(CC3)CN[C@H](C(=O)O)C4)nc(N)n2)C(F)(F)F)n1 [Example 1bi, (S)-8-(2-amino-6-((R)-1-(3′,5′-dichloro-3-(3-methyl-1H-pyrazol-1-yl)-[1,1′-biphenyl]-4-yl)-2,2,2-trifluoroethoxy)pyrimidin-4-yl)-2,8-diazaspiro[4.5]decane-3-carboxylic acid] | > 7.30 | 
Cc1cc(-c2ccc([C@@H](Oc3cc(N4CCC5(CC4)CN[C@H](C(=O)O)C5)nc(N)n3)C(F)(F)F)c(-n3ccc(C)n3)c2)cc(C(C)(C)C)c1 [Example 1bj, (S)-8-(2-amino-6-((R)-1-(3′-(tert-butyl)-5′-methyl-3-(3-methyl-1H-pyrazol-1-yl)-[1,1′-biphenyl]-4-yl)-2,2,2-trifluoroethoxy)pyrimidin-4-yl)-2,8-diazaspiro[4.5]decane-3-carboxylic acid] | 6.52 to 7.30 | 
Cc1ccn(-c2cc(-c3cccc(Cl)c3)ccc2[C@@H](Oc2cc(N3CCC4(CC3)CN[C@H](C(=O)O)C4)nc(N)n2)C(F)(F)F)n1 [Example 1bk, (S)-8-(2-amino-6-((R)-1-(3′-chloro-3-(3-methyl-1H-pyrazol-1-yl)-[1,1′-biphenyl]-4-yl)-2,2,2-trifluoroethoxy)pyrimidin-4-yl)-2,8-diazaspiro[4.5]decane-3-carboxylic acid] | > 7.30 | 
Cc1ccn(-c2cc(-c3ccc(C(F)(F)F)c(Cl)c3)ccc2[C@@H](Oc2cc(N3CCC4(CC3)CN[C@H](C(=O)O)C4)nc(N)n2)C(F)(F)F)n1 [Example 1bl, (S)-8-(2-amino-6-((R)-1-(3′-chloro-3-(3-methyl-1H-pyrazol-1-yl)-4′-(trifluoromethyl)-[1,1′-biphenyl]-4-yl)-2,2,2-trifluoroethoxy)pyrimidin-4-yl)-2,8-diazaspiro[4.5]decane-3-carboxylic acid] | > 7.30 | 
COc1ccc(-c2ccc([C@@H](Oc3cc(N4CCC5(CC4)CN[C@H](C(=O)O)C5)nc(N)n3)C(F)(F)F)c(-n3ccc(C)n3)c2)cc1 [Example 1bm, (S)-8-(2-amino-6-((R)-2,2,2-trifluoro-1-(4′-methoxy-3-(3-methyl-1H-pyrazol-1-yl)-[1,1′-biphenyl]-4-yl)ethoxy)pyrimidin-4-yl)-2,8-diazaspiro[4.5]decane-3-carboxylic acid] |  | > 7.30
CCOc1ccc(-c2ccc([C@@H](Oc3cc(N4CCC5(CC4)CN[C@H](C(=O)O)C5)nc(N)n3)C(F)(F)F)c(-n3ccc(C)n3)c2)cc1F [Example 1bn, (S)-8-(2-amino-6-((R)-1-(4′-ethoxy-3′-fluoro-3-(3-methyl-1H-pyrazol-1-yl)-[1,1′-biphenyl]-4-yl)-2,2,2-trifluoroethoxy)pyrimidin-4-yl)-2,8-diazaspiro[4.5]decane-3-carboxylic acid] | > 7.30 | 
Cc1ccn(-c2cc(-c3cc(F)c(F)c(F)c3)ccc2[C@@H](Oc2cc(N3CCC4(CC3)CN[C@H](C(=O)O)C4)nc(N)n2)C(F)(F)F)n1 [Example 1bo, (S)-8-(2-amino-6-((R)-2,2,2-trifluoro-1-(3′,4′,5′-trifluoro-3-(3-methyl-1H-pyrazol-1-yl)-[1,1′-biphenyl]-4-yl)ethoxy)pyrimidin-4-yl)-2,8-diazaspiro[4.5]decane-3-carboxylic acid] | 6.52 to 7.30 | 
Cc1ccn(-c2cc(-c3ccc(C)c(Cl)c3)ccc2[C@@H](Oc2cc(N3CCC4(CC3)CN[C@H](C(=O)O)C4)nc(N)n2)C(F)(F)F)n1 [Example 1bp, (S)-8-(2-amino-6-((R)-1-(3′-chloro-4′-methyl-3-(3-methyl-1H-pyrazol-1-yl)-[1,1′-biphenyl]-4-yl)-2,2,2-trifluoroethoxy)pyrimidin-4-yl)-2,8-diazaspiro[4.5]decane-3-carboxylic acid] | > 7.30 | 
Cc1ccn(-c2cc(-c3ccc(OC(F)(F)F)c(C)c3)ccc2[C@@H](Oc2cc(N3CCC4(CC3)CN[C@H](C(=O)O)C4)nc(N)n2)C(F)(F)F)n1 [Example 1bq, (S)-8-(2-amino-6-((R)-2,2,2-trifluoro-1-(3′-methyl-3-(3-methyl-1H-pyrazol-1-yl)-4′-(trifluoromethoxy)-[1,1′-biphenyl]-4-yl)ethoxy)pyrimidin-4-yl)-2,8-diazaspiro[4.5]decane-3-carboxylic acid] | > 7.30 | 
Cc1ccn(-c2cc(-c3ccc(OC(C)C)c(Cl)c3)ccc2[C@@H](Oc2cc(N3CCC4(CC3)CN[C@H](C(=O)O)C4)nc(N)n2)C(F)(F)F)n1 [Example 1bv, (S)-8-(2-amino-6-((R)-1-(3′-chloro-4′-isopropoxy-3-(3-methyl-1H-pyrazol-1-yl)-[1,1′-biphenyl]-4-yl)-2,2,2-trifluoroethoxy)pyrimidin-4-yl)-2,8-diazaspiro[4.5]decane-3-carboxylic acid] | > 7.30 | 
Cc1ccn(-c2cc(-c3ccc4ccccc4c3)ccc2[C@@H](Oc2cc(N3CCC4(CC3)CN[C@H](C(=O)O)C4)nc(N)n2)C(F)(F)F)n1 [Example 1bw, (S)-8-(2-amino-6-((R)-2,2,2-trifluoro-1-(2-(3-methyl-1H-pyrazol-1-yl)-4-(naphthalen-2-yl)phenyl)ethoxy)pyrimidin-4-yl)-2,8-diazaspiro[4.5]decane-3-carboxylic acid] | 6.52 to 7.30 | 
Cc1ccn(-c2cc(-c3ccc(OCc4ccccc4)c(F)c3)ccc2[C@@H](Oc2cc(N3CCC4(CC3)CN[C@H](C(=O)O)C4)nc(N)n2)C(F)(F)F)n1 [Example 1bx, (S)-8-(2-amino-6-((R)-1-(4′-(benzyloxy)-3′-fluoro-3-(3-methyl-1H-pyrazol-1-yl)-[1,1′-biphenyl]-4-yl)-2,2,2-trifluoroethoxy)pyrimidin-4-yl)-2,8-diazaspiro[4.5]decane-3-carboxylic acid] | > 7.30 | 
Cc1ccn(-c2cc(-c3ccc(OC(C)C)c(C)c3)ccc2[C@@H](Oc2cc(N3CCC4(CC3)CN[C@H](C(=O)O)C4)nc(N)n2)C(F)(F)F)n1 [Example 1by, (S)-8-(2-amino-6-((R)-2,2,2-trifluoro-1-(4′-isopropoxy-3′-methyl-3-(3-methyl-1H-pyrazol-1-yl)-[1,1′-biphenyl]-4-yl)ethoxy)pyrimidin-4-yl)-2,8-diazaspiro[4.5]decane-3-carboxylic acid] | > 7.30 | 
CCCOc1ccc(-c2ccc([C@@H](Oc3cc(N4CCC5(CC4)CN[C@H](C(=O)O)C5)nc(N)n3)C(F)(F)F)c(-n3ccc(C)n3)c2)cc1F [Example 1bz, (S)-8-(2-amino-6-((R)-2,2,2-trifluoro-1-(3′-fluoro-3-(3-methyl-1H-pyrazol-1-yl)-4′-propoxy-[1,1′-biphenyl]-4-yl)ethoxy)pyrimidin-4-yl)-2,8-diazaspiro[4.5]decane-3-carboxylic acid] | > 7.30 | 
CCCCOc1ccc(-c2ccc([C@@H](Oc3cc(N4CCC5(CC4)CN[C@H](C(=O)O)C5)nc(N)n3)C(F)(F)F)c(-n3ccc(C)n3)c2)cc1F [Example 1ca, (S)-8-(2-amino-6-((R)-1-(4′-butoxy-3′-fluoro-3-(3-methyl-1H-pyrazol-1-yl)-[1,1′-biphenyl]-4-yl)-2,2,2-trifluoroethoxy)pyrimidin-4-yl)-2,8-diazaspiro[4.5]decane-3-carboxylic acid] | > 7.30 | 
Cc1ccn(-c2cc(-c3ccc(-c4nnc(C)o4)c(F)c3)ccc2[C@@H](Oc2cc(N3CCC4(CC3)CN[C@H](C(=O)O)C4)nc(N)n2)C(F)(F)F)n1 [Example 1cb, (S)-8-(2-amino-6-((R)-2,2,2-trifluoro-1-(3′-fluoro-4′-(5-methyl-1,3,4-oxadiazol-2-yl)-3-(3-methyl-1H-pyrazol-1-yl)-[1,1′-biphenyl]-4-yl)ethoxy)pyrimidin-4-yl)-2,8-diazaspiro[4.5]decane-3-carboxylic acid] | > 7.30 | 
